This is an account of results in patent US6653316B1, “Substituted polycyclic aryl and heteroaryl pyrimidinones useful for selective inhibition of the coagulation cascade” (Pharmacia Corporation, priority 1999, dated 2003).

What all share (format): biochemical
Experiment [1] concerns the target T1, recombinant soluble tissue factor and recombinant human factor VIIa (TF-VIIa) (Homo sapiens, UniProt P08709).
T1 construct: conversion of coagulation factor VII to VIIa by Xa; host or cells: E. coli (soluble TF)
As to the kind of experiment: TF-VIIa Assay (chromogenic substrate hydrolysis, OD 405 nm). To be noted: cells without % sign; 60 min at room temperature; read-out: IC50 or % Inhibition TF-VIIa (30 μM): IC50. The method, then: In this assay 100 nM recombinant soluble tissue factor and 2 nM recombinant human factor VIIa are added to a 96-well assay plate containing 0.4 mM of the substrate, N-Methylsulfonyl-D-phe-gly-arg-p-nitroaniline and either inhibitor or buffer (5 mM CaCl2,50 mM Tris-HCl, pH 8.0, 100 mM NaCl, 0.1% BSA). The reaction, in a final volume of 100 ul is measured immediately at 405 nm to determine background absorbance. The plate is incubated at room temperature for 60 min, at which time the rate of hydrolysis of the substrate is measured by monitoring the reaction at 405 nm for the release of p-nitroaniline. Percent inhibition of TF-VIIa activity is calculated from OD405 nm value from the experimental and control sample.
(§1) Recombinant soluble TF, consisting of amino acids 1-219 of the mature protein sequence was expressed in E. coli and purified using a Mono Q Sepharose FPLC. Recombinant human VIIa was purchased from American Diagnostica, Greenwich Conn. and chromogenic substrate N-Methylsulfonyl-D-phe-gly-arg-p-nitroaniline was prepared by American Peptide Company, Inc., Sunnyvale, Calif. Factor Xa was obtained from Enzyme Research Laboratories, South Bend Ind., thrombin from Calbiochem, La Jolla, Calif., and trypsin and L-BAPNA from Sigma, St. Louis Mo. The chromogenic substrates S-2765 and S-2238 were purchased from Chromogenix, Sweden.

For the next experiment, the target named is human thrombin (Homo sapiens, UniProt P00734). Briefly: Thrombin Assay (chromogenic substrate hydrolysis, OD 405 nm). To be noted: for IC50: cells without % sign, 60 min at room temperature, read-out: IC50 or % Inhibition Thrombin II (30 μM): IC50; for inhibition at 30 µM / inhibition at 100 µM: read-out: IC50 or % Inhibition Thrombin II (30 μM): % inhibition. The method, then:
0.28 nM human thrombin and 0.06 mM H-D-Phenylalanyl-L-pipecolyl-L-arginine-p-nitroaniline dihydrochloride are added to a 96-well assay plate containing either inhibitor or buffer (50 mM Tris-HCl, pH 8.0. 100 mM NaCl, 0.1% BSA). The reaction, in a final volume of 100 ul is measured immediately at 405 nm to determine background absorbance. The plate is incubated at room temperature for 60 min, at which time the rate of hydrolysis of the substrate is measured by monitoring the reaction at 405 nm for the release of p-nitroaniline. Percent inhibition of thrombin activity is calculated from OD405 nm value from the experimental and control sample.
as §1

Experiment [2] addresses T2, trypsin, type IX from porcine pancreas (Sus scrofa, UniProt P00761).
T2 construct: purchased Sigma, St. Louis Mo. type IX; host or cells: porcine pancreas
Briefly: Trypsin Assay (L-BAPNA hydrolysis, OD 405 nm). To be noted: cells without % sign; 60 min at room temperature; read-out: IC50 or % Inhibition Trpysin II (30 μM): IC50. The protocol: 5 ug/ml trypsin, type IX from porcine pancreas and 0.375 mM N-α-Benzoyl-L-arginine-p-nitroanilide (L-BAPNA) are added to a 96-well assay plate containing either inhibitor or buffer (50 mM Tris-HCl, pH 8.0, 100 mM NaCl, 0.1% BSA). The reactions, in a final volume of 100 ul are measured immediately at 405 nm to determine background absorbance. The plate is incubated at room temperature for 60 min, at which time the rate of hydrolysis of the substrate is measured by monitoring the reaction at 405 nm for the release of p-nitroaniline. Percent inhibition of trypsin activity is calculated from OD405 nm value from the experimental and control sample.
as §1

Another experiment addresses T3, human factor Xa (Homo sapiens, UniProt P00742).
T3 construct: purchased Enzyme Research Laboratories, South Bend Ind
Briefly: Xa Assay (chromogenic substrate S-2765 hydrolysis, OD 405 nm). The protocol:
0.3 nM human factor Xa and 0.15 mM N-α-Benzyloxycarbonyl-D-arginyl-L-glycyl-L-arginine-p-nitroaniline-dihydrochloride (S-2765) are added to a 96-well assay plate containing either inhibitor or buffer (50 mM Tris-HCl, pH 8.0, 100 mM NaCl, 0.1% BSA). The reaction. in a final volume of 100 ul is measured immediately at 405 nm to determine background absorbance. The plate is incubated at room temperature for 60 min, at which time the rate of hydrolysis of the substrate is measured by monitoring the reaction at 405 nm for the release of p-nitroaniline. Percent inhibition of Xa activity is calculated from OD405 nm value from the experimental and control sample.
as §1

The mark [3] stands for this setting: read-out: IC50 or % Inhibition Factor Xa (30 μM): % inhibition.

As a reminder, the IC50 is the point on the concentration scale where inhibition reaches its midpoint. Broadly, the inhibition is the share of the control response that was lost under treatment.

T1 sequence (P08709 213-466 limits assumed): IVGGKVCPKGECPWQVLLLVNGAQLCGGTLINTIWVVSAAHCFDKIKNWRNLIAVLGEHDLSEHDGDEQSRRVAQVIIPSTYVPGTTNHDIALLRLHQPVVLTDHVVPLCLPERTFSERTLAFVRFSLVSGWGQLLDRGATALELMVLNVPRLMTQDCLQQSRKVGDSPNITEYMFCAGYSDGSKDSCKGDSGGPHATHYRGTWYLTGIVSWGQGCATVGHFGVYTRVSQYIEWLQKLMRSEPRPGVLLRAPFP
T1 sequence (P08709 61-212 limits assumed): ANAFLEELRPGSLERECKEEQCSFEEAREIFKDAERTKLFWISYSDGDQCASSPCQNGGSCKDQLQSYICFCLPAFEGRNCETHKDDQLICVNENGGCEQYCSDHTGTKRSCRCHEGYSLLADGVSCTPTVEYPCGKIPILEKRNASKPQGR
T1 sequence (P13726 33-251 partner limits assumed): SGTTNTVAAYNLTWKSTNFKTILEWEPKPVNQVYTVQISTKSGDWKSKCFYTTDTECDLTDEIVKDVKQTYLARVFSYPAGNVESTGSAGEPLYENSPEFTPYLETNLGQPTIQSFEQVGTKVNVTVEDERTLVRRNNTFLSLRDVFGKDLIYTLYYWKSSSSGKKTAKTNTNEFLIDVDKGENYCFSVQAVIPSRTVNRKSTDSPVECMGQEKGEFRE
T3 sequence (P00742 235-488 limits assumed): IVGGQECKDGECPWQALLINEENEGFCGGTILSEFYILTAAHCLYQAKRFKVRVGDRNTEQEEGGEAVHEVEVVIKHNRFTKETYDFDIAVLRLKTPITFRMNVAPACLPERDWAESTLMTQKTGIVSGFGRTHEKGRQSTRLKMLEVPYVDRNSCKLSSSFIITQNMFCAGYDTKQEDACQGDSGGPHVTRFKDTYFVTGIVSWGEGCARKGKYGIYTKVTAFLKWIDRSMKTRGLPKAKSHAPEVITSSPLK
T3 sequence (P00742 41-179 limits assumed): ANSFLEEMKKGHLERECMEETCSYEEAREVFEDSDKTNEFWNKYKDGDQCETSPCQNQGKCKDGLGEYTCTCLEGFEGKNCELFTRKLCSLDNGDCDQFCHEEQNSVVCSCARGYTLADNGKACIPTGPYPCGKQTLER
T2 sequence (P00761 9-231): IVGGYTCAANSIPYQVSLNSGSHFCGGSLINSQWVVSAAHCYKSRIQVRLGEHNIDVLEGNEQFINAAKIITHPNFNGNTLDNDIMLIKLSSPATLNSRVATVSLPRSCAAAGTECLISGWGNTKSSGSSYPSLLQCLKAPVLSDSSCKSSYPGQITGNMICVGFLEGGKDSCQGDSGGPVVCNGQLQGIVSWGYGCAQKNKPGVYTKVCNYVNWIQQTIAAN

For the molecule `N=C(N)c1ccc(CNC(=O)Cn2c(-c3ccccc3)ncc(NS(=O)(=O)Cc3ccccc3)c2=O)cc1` [Example 1], the IC50 was determined as 15400 nM in experiment [1], 22400 nM at human thrombin and 500 nM in experiment [2].

In the case of `N=C(N)c1cccc(CNC(=O)Cn2c(-c3ccccc3)ncc(NS(=O)(=O)Cc3ccccc3)c2=O)c1` [Example 2], at human thrombin, the IC50 is over 30000 nM.

For `N=C(N)c1ccc(CNC(=O)Cn2c(-c3ccccc3)ncc(NCCc3ccccc3)c2=O)cc1` [Example 3], the IC50 in experiment [1] turned out to be 1000 nM; in experiment [2] it was 600 nM.

Consider `CC(C)Nc1cnc(-c2cccc(N)c2)n(CC(=O)NCc2ccc(C(=N)N)cc2)c1=O` [Example 6], for which the IC50 was 50 nM in experiment [1] and under 40 nM in experiment [2]. The inhibition at 30 µM at human thrombin was determined as 43%; on human factor Xa (setting [3]) it was 33%.

Turning to `CC(C)Nc1cnc(-c2cccnc2)n(CC(=O)NCc2ccc(C(=N)N)cc2)c1=O` [Example 7], the IC50 in experiment [1] was determined as 700 nM; on human thrombin it was 11300 nM; in experiment [2], 40 nM. In addition, the inhibition at 30 µM on human factor Xa (setting [3]) amounted to 33%.

On to `N=C(N)c1ccc(CNC(=O)Cn2c(-c3cccc(N)c3)ncc(NC3CCC3)c2=O)cc1` [Example 8], for which the IC50 in experiment [1] stood at 80 nM; in experiment [2], 40 nM. For the same molecule, the inhibition at 30 µM turned out to be 42% at human thrombin and 15% on human factor Xa (setting [3]).

With `COC(=O)c1cc(N)cc(-c2ncc(NC(C)C)c(=O)n2CC(=O)NCc2ccc(C(=N)N)cc2)c1` [Example 20], the IC50 in experiment [1] was 80 nM; at human factor Xa (cells without % sign, 60 min at room temperature, read-out: IC50 or % Inhibition Factor Xa (30 μM): IC50), 85000 nM; in experiment [2] it was 30 nM. For the same molecule, the inhibition at 100 µM at human thrombin was found to be 41%.

Take `CC(C)Nc1cnc(-c2cc(N)cc(C(=O)O)c2)n(CC(=O)NCc2ccc(C(=N)N)cc2)c1=O` [Example 21]: the IC50 in experiment [1] is 70 nM; in experiment [2] it was 50 nM. The inhibition at 100 µM at human thrombin was determined as 26%; on human factor Xa (@100 μM, read-out: IC50 or % Inhibition Factor Xa (30 μM): % inhibition), 15%.
